Measured values: article PMC3160846 (PLoS ONE, 2011)

Assays:
HCT116 cancer cells = assay: Western blot of phosphor-Aurora kinases and phosphor-Histone H3 in HCT116 cells; format: cell-based
Experimental: (§1) Cells were lysed with ice-cold lysis buffer (10 mM Tris, 1 mM EDTA, 1 mM DTT, 60 mM KCl, 0.5% NP-40 and protease inhibitors). […] The resolved proteins were electrophoretically transferred to PVDF membranes (Amersham Life Science, Amersham, U.K.) for Western blot analysis. The membranes were blocked with 5% non-fat milk at room temperature for two hours, washed twice with TBST (1% Tween) and then incubated with either anti-phosphorylated Aurora-A/-B/-C kinase antibody (#2914S, Cell Signaling Technology, Danvers, MA), anti-Aurora-A and -B kinase antibody (#ab1287 and #ab2254, Abcam, Cambridge, MA), anti-phosphorylated Histone H3 antibody (#9701, Cell Signaling Technology, Danvers, MA), anti-Histone H3 antibody (#9715, Cell Signaling Technology, Danvers, MA), anti-Cyclin B1 antibody or anti-Actin antibody (#sc-245 and #sc-130065, Santa Cruz Biotechnology, Santa Cruz, CA) overnight at 4°C. Membranes were washed twice with TBST then subsequently incubated with a horseradish peroxidase-conjugated secondary antibody (Santa Cruz Biotechnology, Santa Cruz, CA) for 1 hour at room temperature. Immunoreactivity was detected by Enhanced Chemiluminescence (Amersham International, Buckingham, U.K.) and autoradiography. Experiments were repeated independently at least two times.

HONE-1 cells = assay: Clonogenic assay, HONE-1; format: cell-based, Human; details: Homo sapiens, HONE1; HONE-1, oral, p53 mutant, MDR1 negative; read-out: IC50, anti-proliferative activity
Experimental: (§2) Human lung adenocarcinoma A549 cells and NTUB1 bladder cancer cells were maintained in RPMI supplied with 10% fetal bovine serum. […] KB-derived MRP1-expressing cell line, KB-7D, was maintained in growth medium supplemented with 7 µM VP-16.
(§3) Two hundred cells in logarithmic growth phase were seeded in a 6-well plate. The cells were exposed to various concentrations of the test drugs for a three-generation period. At the end of the incubation period, cells were fixed and stained with 50% ethanol containing 0.5% methylene blue for 30 min. The plates were washed five times with water and allowed to air-dry. Colonies were countered manually. […] Each value represents the average of at least three independent experiments run in triplicates.

KB cells [1] = assay: Western blot of Histone H3 phosphorylation and cyclin B1, KB; format: cell-based, Human; details: 48 h, BPR1K653 12, 24, 36 nM, VX680 170 and 255 nM
Experimental: as §1

HT29 cells = assay: Clonogenic assay, HT29; format: cell-based, Human; details: Homo sapiens, HT-29; HT29, colon, p53 mutant, MDR1 negative; read-out: IC50, anti-proliferative activity
Experimental: as §2, §3

KB-VIN10 cells [2] = assay: Endo-replication (polyploidy), microscopy and flow cytometry, KB-VIN10; format: cell-based, Human; details: for formation of polyploidy (populations >4N): KB-VIN10, 48 h, same concentrations as KB
Experimental: (§4) Cell cycle progression was monitored using flow cytometry. After drug treatment, cells were trypsinized, washed with PBS and fixed in 80% ethanol at −20°C for 1 h. The fixed cells were stained with propidium iodide (containing RNase) at room temperature in the dark for 20 min. The DNA content was determined by a fluorescence-activated cell sorting IV flow cytometer (BD Biosciences, Franklin Lakes, NJ). For each analysis, 10,000 cells were counted and the percentage of cells in each phase was calculated using the ModFit LT software (Verity Software House, Topsham, ME). Experiments were repeated independently at least three times.

[3] = test system: MDR1-expressing KB-VIN10 xenograft; assay: KB-VIN10 xenograft in nude mice; format: in vivo; details: 5 days/week for 3 weeks; for decrease in tumor volume: Day 42, BPR1K653 15 mg/kg or VX680 30 mg/kg i.p.
Experimental: Male nude mice (5–6-weeks-old) were purchased from the National Laboratory Animal Centre (Taiwan R.O.C.). The animals were s.c. implanted with 5×10^5 KB cells or 1×10^6 KB-VIN10 cells mixed with equal volume of Matrigel (Becton Dickinson) in 0.1 mL at one flank per mouse via a 22-gauge needle. Tumor growth was examined twice a week after implantation, and the volume of tumor mass was measured with an electronic caliper and calculated as 1/2×length×width^2 in mm^3.
BPR1K653 was dissolved completely in a vehicle mixture of DMSO/cremophor/saline (1∶2∶7). Selected dose of BPR1K653 was decided base on the following conditions: 1/2 of the dosage that caused noticeable body weight loss (>10%) in the treated mice during toxicity study. […] The control group (5 mice) was treated with vehicle mixture only. Tumor size and animal body weight were measured every three days after drug treatment. Toxicity was evaluated based on the body weight reduction. At the end of the experiments (tumor size of the control >2000 mm^3), animals were euthanized with carbon dioxide.

KB cells [4] = assay: Endo-replication (polyploidy), microscopy and flow cytometry, KB; format: cell-based, Human; details: 48 h
Experimental: as §4

KB-VIN10 cells [5] = assay: Apoptosis assays (Annexin-V, caspase-3/-7 imaging, TUNEL, PARP cleavage), KB-VIN10; format: cell-based, Human; details: for apoptosis: phosphatidylserine translocation, caspase-3/-7 activity, DNA fragmentation: KB-VIN10, 48-72 h
Experimental: Cells were lysed with ice-cold lysis buffer (10 mM Tris, 1 mM EDTA, 1 mM DTT, 60 mM KCl, 0.5% NP-40 and protease inhibitors). […] The resolved proteins were electrophoretically transferred to PVDF membranes (Amersham Life Science, Amersham, U.K.) for Western blot analysis. […] Membranes were washed twice with TBST then subsequently incubated with a horseradish peroxidase-conjugated secondary antibody (Santa Cruz Biotechnology, Santa Cruz, CA) for 1 hour at room temperature. Immunoreactivity was detected by Enhanced Chemiluminescence (Amersham International, Buckingham, U.K.) and autoradiography. Experiments were repeated independently at least two times.
The cells were analyzed by fluorescence microscopy.
Briefly, cells were cultured in chamber-slides and incubated with test agents for various durations. […] Cells were viewed with a UV-enabled inverted-microscope at an excitation wavelength of 540 nm–560 nm and emission at 610 nm. Experiments were repeated independently at least two times.
Under in vitro conditions, cells were seeded and cultured in 8-well chamber-slides, and treated with various compounds. The treated cells were washed with PBS, fixed with 4% paraformaldehyde for 30 min on ice, and permeabilized with PBST at room temperature. […] Cells were counterstained with DAPI to detect the nucleus, and examined by fluorescence microscopy. Amount of red fluorescence labeled (DNA fragmented) cells were counted and percentage of apoptotic cells were calculated as follows: Amount of the red fluorescence labeled cells ÷ Total cells available×100. Experiments were repeated independently at least two times.

KB-VIN10 cells [6] = assay: Clonogenic assay, KB-VIN10; format: cell-based, Human; details: for IC50: Homo sapiens, KB-VIN10, vincristine resistant, MDR1 ↑, read-out: IC50, anti-proliferative activity
Experimental: as §2, §3

Row | Structure (SMILES) | phosphor-Aurora-A, -B and -C kinase (HCT116 cancer cells) | phosphor-Histone H3 (Ser10) (HCT116 cancer cells) | IC50 (HONE-1 cells) | Histone H3 phosphorylation and cyclin B1 expression (KB cells [1]) | IC50 (HT29 cells) | formation of polyploidy (populations >4N) (KB-VIN10 cells [2]) | formation of polyploidy, co-treated with verapamil (KB-VIN10 cells [2]; KB-VIN10, + 10 µM verapamil) | decrease in tumor volume [3] | formation of polyploidy (populations >4N) (KB cells [4]) | apoptosis: phosphatidylserine translocation, caspase-3/-7 activity, DNA fragmentation (KB-VIN10 cells [5]) | IC50 (KB-VIN10 cells [6]) | loss of body weight after treatment ([3]; 15 mg/kg i.p., vs control group) | cleavage of PARP (KB-VIN10 cells [5]; KB-VIN10, 2× IC50 of KB, 72 h, Western blot) | Fold difference as compare to the IC50 in the respective parental cells (KB-VIN10 cells [6]; KB-VIN10 vs KB)
1 | Cc1cc(Nc2cc(N3CCN(C)CC3)nc(Sc3ccc(NC(=O)C4CC4)cc3)n2)[nH]n1 [VX680] | reduced in a concentration-dependent manner | reduced the amount of phosphor-Histone H3 (Ser10) | 20 ± 2 nM | inhibited the phosphorylation of Histone H3 and the expression of cyclin B1 | 160 ± 33 nM | not in KB-VIN10 cells | formation of the polyploidy population was shown | did not exhibit significant tumor growth inhibitory effect | induced the formation of polyploidy in KB cells | not in the MDR1-expressing KB-VIN10 cells | 1400 ± 140 nM | – | – | –
2 | CN(C)Cc1ccccc1NC(=O)Nc1ccc(CCNc2ncnc3oc(-c4ccccc4)c(Cl)c23)cc1 [BPR1K653] | concentration-dependent decrease | concentration-dependent decrease | 11 nM | inhibition of Histone H3 phosphorylation and down-regulation of cyclin B1 expression | 12 ± 2 nM | induced the formation of polyploidy | – | ~50% | induced the formation of polyploidy | induced the caspase-3/-7 activity and DNA fragmentation | 14 ± 4 nM | less than 10% | cleavage of PARP was only shown | 1 fold
